The record followed here is PubChem BioAssay AID743299 (The Scripps Research Institute Molecular Screening Center, 2014).

In this test the target is methionyl-tRNA synthetase (Trypanosoma brucei brucei). Description: T. brucei MetRS inhibitors, orthogonal readout, late-stage follow-up, orthogonal assay for T. brucei MetRS inhibitor project, biochemical, fluorescence polarization, dose response, round 2 (AID 743299). The settings on record: recombinant T. brucei MetRS.

`CCN(CC)C(=O)C(=O)c1cn(CC(=O)Nc2cccc(C(F)(F)F)c2)c2ccccc12`: the IC50 was 181 nM.
